Measurements published in patent US20250129070A1, “BIFUNCTIONAL ANDROGEN RECEPTOR COMPOUNDS” (priority 2023, published 2025).

Legend:
AR / CBP ternary complex = assay: Ternary complex formation assay (sandwich ELISA, AR capture / CBP detection) in VCaP cell lysates; assay type: cell-based; conditions: 1.5 hours treatment, sandwich ELISA (AR capture, CBP or p300 detection)
How it was run: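 Anti-AR (AR 441)-coated plates capture AR from lysates of VCaP cells grown ≥3 days at 50K/well in 5% charcoal-stripped FBS, dosed with bifunctional for 1.5 h and lysed 30 min at 4 °C. Co-captured CBP/p300 is probed with rabbit mAb and HRP anti-rabbit, then QuantaRed fluorescence (570/585) is read at 0, 5 and 15 min.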

VCaP cells = assay: VCaP growth inhibition assay; assay type: cell-based; conditions: 30 pM R1881, 9 days, CTG
How it was run: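 Growth read by CTG luminescence after 9-day exposure to compound (final 100 nM–10 fM, 1:5 steps) plus 30 pM R1881, in phenol red-free DMEM with 5% CSS. Cells pre-incubated 72 h before dosing; IC50 by nonlinear 4-parameter regression.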

SMILES | EC50 (AR / CBP ternary complex) [nM] | IC50 (VCaP cells) [nM]
CC(=O)N1CCc2c(c(N3CCCc4cc(-c5cnn(C)c5)c(C)cc43)nn2C2CCN(C(=O)C3CCN(c4ncc(C(=O)NC5C(C)(C)C(Oc6ccc(C#N)c(Cl)c6)C5(C)C)cn4)CC3)CC2)C1 (stereo not drawn) [Compound 120, 2-[4-[4-[5-acetyl-3-[7-methyl-6-(1-methylpyrazol-4-yl)-3,4-dihydro-2H-quinolin-1-yl]-6,7-dihydro-4H-pyrazolo[4,3-c]pyridin-1-yl]piperidine-1-carbonyl]-1-piperidyl]-N-[3-(3-chloro-4-cyano-phenoxy)-2,2,4,4-tetramethyl-cyclobutyl]pyrimidine-5-carboxamide] | < 1 | ≤ 0.1
COc1cc(OC2C(C)(C)C(NC(=O)c3ccc(N4CCN(C5CCN(c6ccc(-c7cc8c(cn7)N(c7nn(C9CCOCC9)c9c7CN(C(C)=O)CC9)CCC8)cn6)CC5)CC4)cc3)C2(C)C)ccc1C#N (stereo not drawn) [Compound 323, 4-[4-[1-[5-[l-(5-acetyl-1-tetrahydropyran-4-yl-6,7-dihydro-4H-pyrazolo[4,3-c]pyridin-3-yl)-3,4-dihydro-2H-1,7-naphthyridin-6-yl]-2-pyridyl]-4-piperidyl]piperazin-1-yl]-N-[3-(4-cyano-3-methoxy-phenoxy)-2,2,4,4-tetramethyl-cyclobutyl]benzamide] | < 1 | ≤ 0.1
COc1cc(OC2C(C)(C)C(NC(=O)c3ccc(N4CCN(CCn5cc(-c6cc7cccc(-c8nn(C9CCOCC9)c9c8CN(C(C)=O)CC9)c7cn6)cn5)CC4)cc3)C2(C)C)ccc1C#N (stereo not drawn) [Compound 249, 4-[4-[2-[4-[8-(5-acetyl-1-tetrahydropyran-4-yl-6,7-dihydro-4H-pyrazolo[4,3-c]pyridin-3-yl)-3-isoquinolyl]pyrazol-1-yl]ethyl]piperazin-1-yl]-N-[3-(4-cyano-3-methoxy-phenoxy)-2,2,4,4-tetramethyl-cyclobutyl]benzamide] | < 1 | 0.1 to 1
COc1cc(OC2C(C)(C)C(NC(=O)c3ccc(N4CCC(CCc5ccc(-c6cc7c(cc6C(F)F)N(c6nn(C8CCOCC8)c8c6CN(C(C)=O)CC8)CCC7)cc5)CC4)cc3)C2(C)C)ccc1C#N (stereo not drawn) [Compound 248, 4-[4-[2-[4-[1-(5-acetyl-1-tetrahydropyran-4-yl-6,7-dihydro-4H-pyrazolo[4,3-c]pyridin-3-yl)-7-(difluoromethyl)-3,4-dihydro-2H-quinolin-6-yl]phenyl]ethyl]-1-piperidyl]-N-[3-(4-cyano-3-methoxy-phenoxy)-2,2,4,4-tetramethyl-cyclobutyl]benzamide] | < 1 | 0.1 to 1
CN1C(=O)CCc2cc(-c3cccc4cc(-c5ccc(CCC6CCN(c7ncc(C(=O)NC8C(C)(C)C(Oc9ccc(C#N)c(Cl)c9)C8(C)C)cn7)CC6)nc5)ncc34)ccc21 (stereo not drawn) [Compound 238, N-[3-(3-chloro-4-cyano-phenoxy)-2,2,4,4-tetramethyl-cyclobutyl]-2-[4-[2-[5-[8-(1-methyl-2-oxo-3,4-dihydroquinolin-6-yl)-3-isoquinolyl]-2-pyridyl]ethyl]-1-piperidyl]pyrimidine-5-carboxamide] | 10 to 100 | > 100
CC(=O)N1CCc2c(c(N3CCCc4cc(-c5cnn(C)c5)c(Cl)cc43)nn2C2CCN(CC3CCN(c4ncc(C(=O)NC5C(C)(C)C(Oc6ccc(C#N)c(Cl)c6)C5(C)C)cn4)CC3)CC2)C1 (stereo not drawn) [Compound 25, 2-[4-[[4-[5-acetyl-3-[7-chloro-6-(1-methylpyrazol-4-yl)-3,4-dihydro-2H-quinolin-1-yl]-6,7-dihydro-4H-pyrazolo[4,3-c]pyridin-1-yl]-1-piperidyl]methyl]-1-piperidyl]-N-[3-(3-chloro-4-cyano-phenoxy)-2,2,4,4-tetramethyl-cyclobutyl]pyrimidine-5-carboxamide] | 1 to 10 | 0.1 to 1
Cn1c(=O)sc2ccc(N3CCCc4cc(-c5ccc(CCC6CCN(c7ncc(C(=O)NC8C(C)(C)C(Oc9ccc(C#N)c(Cl)c9)C8(C)C)cn7)CC6)nc5)c(C(F)F)cc43)cc21 (stereo not drawn) [Compound 236, N-[3-(3-chloro-4-cyano-phenoxy)-2,2,4,4-tetramethyl-cyclobutyl]-2-[4-[2-[5-[7-(difluoromethyl)-1-(3-methyl-2-oxo-1,3-benzothiazol-5-yl)-3,4-dihydro-2H-quinolin-6-yl]-2-pyridyl]ethyl]-1-piperidyl]pyrimidine-5-carboxamide] | > 100 | > 100
CC(=O)N1CCc2c(c(N3CCCc4cc(-c5cnn(C)c5)c(C(F)F)cc43)nn2C2CCN(CCOc3ncc(C(=O)NC4C(C)(C)C(Oc5ccc(C#N)c(Cl)c5)C4(C)C)cn3)CC2)C1 (stereo not drawn) [Compound 89, 2-[2-[4-[5-acetyl-3-[7-(difluoromethyl)-6-(1-methylpyrazol-4-yl)-3,4-dihydro-2H-quinolin-1-yl]-6,7-dihydro-4H-pyrazolo[4,3-c]pyridin-1-yl]-1-piperidyl]ethoxy]-N-[3-(3-chloro-4-cyano-phenoxy)-2,2,4,4-tetramethyl-cyclobutyl]pyrimidine-5-carboxamide] | < 1 | 0.1 to 1
CC(=O)N1CCc2c(c(N3CCCc4ccc(C(F)F)cc43)nn2C2CC3(C2)CN(C(=O)C2CC4(C2)CN(c2ncc(C(=O)NC5C(C)(C)C(Oc6ccc(C#N)c(Cl)c6)C5(C)C)cn2)C4)C3)C1 (stereo not drawn) [Compound 218, 2-[6-[6-[5-acetyl-3-[7-(difluoromethyl)-3,4-dihydro-2H-quinolin-1-yl]-6,7-dihydro-4H-pyrazolo[4,3-c]pyridin-1-yl]-2-azaspiro[3.3]heptane-2-carbonyl]-2-azaspiro[3.3]heptan-2-yl]-N-[3-(3-chloro-4-cyano-phenoxy)-2,2,4,4-tetramethyl-cyclobutyl]pyrimidine-5-carboxamide] | > 100 | 1 to 100
COc1cc(OC2C(C)(C)C(NC(=O)c3ccc(N4CCC(N5CCC(n6nc(N7CCCc8cc(-c9cnn(C)c9)c(C(F)F)cc87)c7c6CCN(C(C)=O)C7)CC5)CC4)cc3)C2(C)C)ccc1C#N (stereo not drawn) [Compound 277, 4-[4-[4-[5-acetyl-3-[7-(difluoromethyl)-6-(1-methylpyrazol-4-yl)-3,4-dihydro-2H-quinolin-1-yl]-6,7-dihydro-4H-pyrazolo[4,3-c]pyridin-1-yl]-1-piperidyl]-1-piperidyl]-N-[3-(4-cyano-3-methoxy-phenoxy)-2,2,4,4-tetramethyl-cyclobutyl]benzamide] | < 1 | ≤ 0.1
CC(=O)N1CCc2c(c(-c3cccc4cc(-c5cnn(CCC6CC7(C6)CN(c6ncc(C(=O)NC8C(C)(C)C(Oc9ccc(C#N)c(Cl)c9)C8(C)C)cn6)C7)c5)ncc34)nn2C2CCOCC2)C1 (stereo not drawn) [Compound 225, 2-[6-[2-[4-[8-(5-acetyl-1-tetrahydropyran-4-yl-6,7-dihydro-4H-pyrazolo[4,3-c]pyridin-3-yl)-3-isoquinolyl]pyrazol-1-yl]ethyl]-2-azaspiro[3.3]heptan-2-yl]-N-[3-(3-chloro-4-cyano-phenoxy)-2,2,4,4-tetramethyl-cyclobutyl]pyrimidine-5-carboxamide] | < 1 | 0.1 to 1
CC(=O)N1CCc2c(c(N3CCCc4cc(-c5cnn(C)c5)c(C(F)F)cc43)nn2C2CCC(OC3CCN(c4ncc(C(=O)NC5C(C)(C)C(Oc6ccc(C#N)c(Cl)c6)C5(C)C)cn4)CC3)CC2)C1 (stereo not drawn) [Compound 338, 2-[4-[4-[5-acetyl-3-[7-(difluoromethyl)-6-(1-methylpyrazol-4-yl)-3,4-dihydro-2H-quinolin-1-yl]-6,7-dihydro-4H-pyrazolo[4,3-c]pyridin-1-yl]cyclohexoxy]-1-piperidyl]-N-[3-(3-chloro-4-cyano-phenoxy)-2,2,4,4-tetramethyl-cyclobutyl]pyrimidine-5-carboxamide] | < 1 | 0.1 to 1
CC(=O)N1CCc2c(c(N3CCc4cc(-c5cnn(C)c5)c(C(F)F)cc43)nn2C2CCN(CC3CCN(c4ncc(C(=O)NC5C(C)(C)C(Oc6ccc(C#N)c(Cl)c6)C5(C)C)cn4)CC3)CC2)C1 (stereo not drawn) [Compound 13, 2-[4-[[4-[5-acetyl-3-[6-(difluoromethyl)-5-(1-methylpyrazol-4-yl)indolin-1-yl]-6,7-dihydro-4H-pyrazolo[4,3-c]pyridin-1-yl]-1-piperidyl]methyl]-1-piperidyl]-N-[3-(3-chloro-4-cyano-phenoxy)-2,2,4,4-tetramethyl-cyclobutyl]pyrimidine-5-carboxamide] | 1 to 10 | 0.1 to 1
CC(=O)N1CCc2c(c(N3CCCc4ccccc43)nn2C2CCN(C(=O)C3CCN(c4ncc(C(=O)NC5C(C)(C)C(Oc6ccc(C#N)c(Cl)c6)C5(C)C)cn4)CC3)CC2)C1 (stereo not drawn) [Compound 129, 2-[4-[4-[5-acetyl-3-(3,4-dihydro-2H-quinolin-1-yl)-6,7-dihydro-4H-pyrazolo[4,3-c]pyridin-1-yl]piperidine-1-carbonyl]-1-piperidyl]-N-[3-(3-chloro-4-cyano-phenoxy)-2,2,4,4-tetramethyl-cyclobutyl]pyrimidine-5-carboxamide] | < 1 | ≤ 0.1
COc1cc(OC2C(C)(C)C(NC(=O)c3ccc(C#CC4CCC(N5CCC(n6nc(N7CCCc8cc(-c9cnn(C)c9)c(C(F)F)cc87)c7c6CCN(C(C)=O)C7)CC5)CC4)cc3)C2(C)C)ccc1C#N (stereo not drawn) [Compound 292, 4-[2-[4-[4-[5-acetyl-3-[7-(difluoromethyl)-6-(1-methylpyrazol-4-yl)-3,4-dihydro-2H-quinolin-1-yl]-6,7-dihydro-4H-pyrazolo[4,3-c]pyridin-1-yl]-1-piperidyl]cyclohexyl]ethynyl]-N-[3-(4-cyano-3-methoxy-phenoxy)-2,2,4,4-tetramethyl-cyclobutyl]benzamide] | < 1 | 0.1 to 1
